Here are results for 5 molecules from ChEMBL document CHEMBL2203069, “Synthesis and structure-activity relationships of a novel series of pyrimidines as potent inhibitors of TBK1/IKKε kinases” (Bioorg Med Chem Lett, 2012).

Data set [1] has as its target T1, 3-phosphoinositide-dependent protein kinase 1 (Homo sapiens, UniProt O15530).
T1 sequence (O15530 whole entry): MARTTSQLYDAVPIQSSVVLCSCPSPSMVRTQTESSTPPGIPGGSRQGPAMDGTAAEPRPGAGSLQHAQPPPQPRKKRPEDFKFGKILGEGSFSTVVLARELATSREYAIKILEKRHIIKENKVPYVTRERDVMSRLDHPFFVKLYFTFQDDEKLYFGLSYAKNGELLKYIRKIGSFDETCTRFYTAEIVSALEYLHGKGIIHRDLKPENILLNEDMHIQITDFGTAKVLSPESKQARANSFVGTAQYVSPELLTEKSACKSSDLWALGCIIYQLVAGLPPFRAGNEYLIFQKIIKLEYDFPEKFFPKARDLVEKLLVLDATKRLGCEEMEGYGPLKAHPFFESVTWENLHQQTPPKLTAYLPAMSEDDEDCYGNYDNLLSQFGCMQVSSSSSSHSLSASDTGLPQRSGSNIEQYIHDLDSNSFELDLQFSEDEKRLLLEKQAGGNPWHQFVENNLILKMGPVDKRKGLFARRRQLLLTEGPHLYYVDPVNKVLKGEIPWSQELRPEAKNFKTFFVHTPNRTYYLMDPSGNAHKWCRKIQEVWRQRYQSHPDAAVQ
As to the kind of experiment: Inhibition of PDK1 by radiometry.

Data set [2] concerns the target T2, Serine/threonine-protein kinase TBK1 (Homo sapiens, UniProt Q9UHD2).
T2 sequence (Q9UHD2 whole entry): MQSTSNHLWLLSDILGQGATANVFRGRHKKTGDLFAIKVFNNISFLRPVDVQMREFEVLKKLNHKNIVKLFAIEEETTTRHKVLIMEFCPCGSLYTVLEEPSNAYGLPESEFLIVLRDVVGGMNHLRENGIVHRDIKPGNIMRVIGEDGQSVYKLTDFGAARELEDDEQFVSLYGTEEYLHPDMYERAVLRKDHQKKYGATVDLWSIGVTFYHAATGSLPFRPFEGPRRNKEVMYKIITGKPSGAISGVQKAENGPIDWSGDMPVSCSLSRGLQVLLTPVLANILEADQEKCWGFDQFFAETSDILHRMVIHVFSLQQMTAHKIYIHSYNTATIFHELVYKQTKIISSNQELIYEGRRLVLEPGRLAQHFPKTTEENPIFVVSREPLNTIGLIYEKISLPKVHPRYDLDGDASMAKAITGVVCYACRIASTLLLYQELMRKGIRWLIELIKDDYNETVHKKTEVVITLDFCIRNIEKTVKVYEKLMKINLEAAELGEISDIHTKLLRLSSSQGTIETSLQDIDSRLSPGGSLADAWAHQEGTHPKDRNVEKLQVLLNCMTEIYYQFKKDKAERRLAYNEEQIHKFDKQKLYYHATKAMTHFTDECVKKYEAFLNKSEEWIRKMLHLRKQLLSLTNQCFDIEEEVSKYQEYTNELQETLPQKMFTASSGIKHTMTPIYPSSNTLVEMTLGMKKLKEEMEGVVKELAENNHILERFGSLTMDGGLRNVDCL
As to the kind of experiment: Inhibition of TBK1 by radiometry.

Data set [3] deals with T3, Serine/threonine-protein kinase TBK1 (Mus musculus, UniProt Q9WUN2).
T3 sequence (Q9WUN2 whole entry): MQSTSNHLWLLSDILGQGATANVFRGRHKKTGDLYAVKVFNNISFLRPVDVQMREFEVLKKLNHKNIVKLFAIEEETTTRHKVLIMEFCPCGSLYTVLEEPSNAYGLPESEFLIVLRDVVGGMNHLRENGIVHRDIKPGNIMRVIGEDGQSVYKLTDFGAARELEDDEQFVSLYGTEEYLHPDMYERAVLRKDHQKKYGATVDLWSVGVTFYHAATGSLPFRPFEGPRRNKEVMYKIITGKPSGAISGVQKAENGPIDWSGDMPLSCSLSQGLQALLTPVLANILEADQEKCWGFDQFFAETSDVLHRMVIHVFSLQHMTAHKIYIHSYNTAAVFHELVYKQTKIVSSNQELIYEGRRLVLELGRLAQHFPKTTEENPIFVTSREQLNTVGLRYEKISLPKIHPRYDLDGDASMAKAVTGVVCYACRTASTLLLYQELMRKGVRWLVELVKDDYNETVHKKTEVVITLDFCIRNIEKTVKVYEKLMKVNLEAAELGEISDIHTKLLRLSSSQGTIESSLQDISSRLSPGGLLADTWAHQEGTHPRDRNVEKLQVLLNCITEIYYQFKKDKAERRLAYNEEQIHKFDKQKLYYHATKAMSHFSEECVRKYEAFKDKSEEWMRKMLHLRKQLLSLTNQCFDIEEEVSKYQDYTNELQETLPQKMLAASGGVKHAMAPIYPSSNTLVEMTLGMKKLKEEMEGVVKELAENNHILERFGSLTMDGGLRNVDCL
As to the kind of experiment: Inhibition of TBK1-mediated RANTES release in LPS-stimulated mouse RAW264.7 cells compound incubated for 30 mins prior LPS challenge measured after 6 hrs by ELISA. In kind it is cell-based. The settings on record: read-out: IC50. A general note: ELISA stands for enzyme-linked immunosorbent assay.

The nature of data set [4]: Metabolic stability in human liver microsomes assessed as compound turnover after 40 mins. The settings on record: read-out: Drug metabolism. In kind it is ADME, Microsome.
Data set [5] can be described thus: Metabolic stability in mouse liver microsomes assessed as compound turnover after 30 mins. The settings on record: read-out: Drug metabolism. In kind it is ADME, Microsome. In general terms: Liver microsomes are a subcellular fraction often used to study metabolism.
The nature of data set [6]: Inhibition of AMPK.
Data set [7] concerns the target MAP kinase-interacting serine/threonine-protein kinase 1 (Homo sapiens, UniProt Q9BUB5). Kind of data set: Inhibition of MNK1.
In data set [8] the target is MAP/microtubule affinity-regulating kinase 3 (Homo sapiens, UniProt P27448). Kind of data set: Inhibition of MARK3.
Chain of MAP/microtubule affinity-regulating kinase 3 (P27448 whole entry): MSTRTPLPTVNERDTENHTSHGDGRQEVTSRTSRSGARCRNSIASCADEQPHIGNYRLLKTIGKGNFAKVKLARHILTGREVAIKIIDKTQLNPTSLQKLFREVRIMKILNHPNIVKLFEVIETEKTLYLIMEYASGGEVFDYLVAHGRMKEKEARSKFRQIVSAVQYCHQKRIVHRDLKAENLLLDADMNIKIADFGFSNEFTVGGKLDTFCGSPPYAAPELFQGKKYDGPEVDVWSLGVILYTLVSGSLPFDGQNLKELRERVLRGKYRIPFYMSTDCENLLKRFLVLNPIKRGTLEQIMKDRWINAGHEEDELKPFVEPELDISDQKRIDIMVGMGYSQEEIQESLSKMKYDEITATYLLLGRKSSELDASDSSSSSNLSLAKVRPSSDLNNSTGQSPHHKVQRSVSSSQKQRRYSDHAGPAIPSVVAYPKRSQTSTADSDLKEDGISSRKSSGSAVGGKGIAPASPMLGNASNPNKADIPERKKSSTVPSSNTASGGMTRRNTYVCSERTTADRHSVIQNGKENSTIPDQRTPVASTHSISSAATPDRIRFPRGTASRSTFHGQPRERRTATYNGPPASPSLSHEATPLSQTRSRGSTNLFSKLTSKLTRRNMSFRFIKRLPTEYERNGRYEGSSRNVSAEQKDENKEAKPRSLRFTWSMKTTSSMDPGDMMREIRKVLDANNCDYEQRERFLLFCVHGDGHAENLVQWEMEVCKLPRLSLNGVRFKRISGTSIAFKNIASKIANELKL
For data set [9], the target named is T4, Serine/threonine-protein kinase BRSK2 (Homo sapiens, UniProt Q8IWQ3).
T4 sequence (Q8IWQ3 whole entry): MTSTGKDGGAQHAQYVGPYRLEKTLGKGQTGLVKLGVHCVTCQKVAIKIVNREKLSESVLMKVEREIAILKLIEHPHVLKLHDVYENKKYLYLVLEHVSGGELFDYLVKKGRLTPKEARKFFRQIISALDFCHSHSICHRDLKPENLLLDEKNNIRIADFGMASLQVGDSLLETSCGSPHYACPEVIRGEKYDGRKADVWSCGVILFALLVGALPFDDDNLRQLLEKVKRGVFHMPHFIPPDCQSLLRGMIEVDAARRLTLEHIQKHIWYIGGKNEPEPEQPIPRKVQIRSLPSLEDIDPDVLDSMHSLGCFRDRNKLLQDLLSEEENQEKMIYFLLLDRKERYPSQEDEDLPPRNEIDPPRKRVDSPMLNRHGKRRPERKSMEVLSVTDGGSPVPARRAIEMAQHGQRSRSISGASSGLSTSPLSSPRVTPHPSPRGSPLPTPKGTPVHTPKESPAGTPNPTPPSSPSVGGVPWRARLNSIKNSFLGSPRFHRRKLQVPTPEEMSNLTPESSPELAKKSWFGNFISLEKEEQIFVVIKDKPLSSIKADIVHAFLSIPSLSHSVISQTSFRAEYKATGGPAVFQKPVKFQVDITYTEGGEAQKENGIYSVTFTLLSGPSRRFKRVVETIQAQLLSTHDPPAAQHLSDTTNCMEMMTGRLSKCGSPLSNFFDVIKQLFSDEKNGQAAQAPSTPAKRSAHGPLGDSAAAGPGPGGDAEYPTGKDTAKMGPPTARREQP
As to the kind of experiment: Inhibition of BRSK2.

A short description of data set [10]: Efflux ratio of permeability from basolateral to apical side to apical to basolateral side in human Caco2 cells. In kind it is ADME, cell-based. As to conditions: Caco-2.
Data set [11] is described as follows: Permeability from apical to basolateral side of human Caco2 cells. Type of data set: ADME, cell-based. As to conditions: Caco-2, read-out: permeability. In general terms: Caco-2 monolayers are a common model of the intestinal barrier.
A short description of data set [12]: Half life in CD-1 mouse at 1 mg/kg, iv. Type of data set: ADME, organism-based. Details: dose 1 mg/kg, route intravenous. As to conditions: in vivo.
The target of data set [13] is T5, Inhibitor of nuclear factor kappa-B kinase subunit epsilon (Homo sapiens, UniProt Q14164).
T5 sequence (Q14164 whole entry): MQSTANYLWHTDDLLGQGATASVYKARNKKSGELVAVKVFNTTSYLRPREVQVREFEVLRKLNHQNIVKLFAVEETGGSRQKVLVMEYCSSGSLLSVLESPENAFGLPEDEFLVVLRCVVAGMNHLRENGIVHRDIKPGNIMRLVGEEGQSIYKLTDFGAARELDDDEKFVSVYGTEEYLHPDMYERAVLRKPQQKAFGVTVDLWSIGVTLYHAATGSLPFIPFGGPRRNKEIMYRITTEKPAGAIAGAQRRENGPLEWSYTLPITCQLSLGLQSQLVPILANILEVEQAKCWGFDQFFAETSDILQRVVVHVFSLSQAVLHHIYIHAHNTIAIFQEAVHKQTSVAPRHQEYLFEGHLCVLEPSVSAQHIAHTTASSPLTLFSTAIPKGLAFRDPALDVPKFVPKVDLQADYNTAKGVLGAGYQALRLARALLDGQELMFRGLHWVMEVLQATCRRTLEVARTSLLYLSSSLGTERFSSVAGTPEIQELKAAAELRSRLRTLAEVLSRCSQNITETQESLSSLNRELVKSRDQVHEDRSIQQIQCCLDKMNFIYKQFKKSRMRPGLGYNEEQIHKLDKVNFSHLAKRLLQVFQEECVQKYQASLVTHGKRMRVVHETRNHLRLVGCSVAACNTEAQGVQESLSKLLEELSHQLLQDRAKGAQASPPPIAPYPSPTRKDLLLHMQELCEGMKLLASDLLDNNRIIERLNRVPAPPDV
As to the kind of experiment: Inhibition of IKKepsilon.

Data set [14] concerns Mus musculus. As to the kind of experiment: Toxicity in mouse at >= 20 mg/kg, ip. In kind it is organism-based. As to conditions: in vivo. Details: dose 20 mg/kg, route intraperitoneal.
For data set [15], the target named is Cyclin-dependent kinase 2 (Homo sapiens, UniProt P24941). Kind of data set: Inhibition of CDK2.
Data set [16] in a line: Oral bioavailability in CD-1 mouse at 5 mg/kg. In kind it is ADME, organism-based. The settings on record: in vivo.
Data set [17] can be described thus: Volume of distribution in CD-1 mouse at 1 mg/kg, iv. The settings on record: in vivo. Type of data set: ADME, organism-based. Also on record: dose 1 mg/kg, route intravenous.
The target in data set [18] is Aurora kinase B (Homo sapiens, UniProt Q96GD4). Kind of data set: Inhibition of Aurora B.
Chain of Aurora kinase B (Q96GD4 whole entry): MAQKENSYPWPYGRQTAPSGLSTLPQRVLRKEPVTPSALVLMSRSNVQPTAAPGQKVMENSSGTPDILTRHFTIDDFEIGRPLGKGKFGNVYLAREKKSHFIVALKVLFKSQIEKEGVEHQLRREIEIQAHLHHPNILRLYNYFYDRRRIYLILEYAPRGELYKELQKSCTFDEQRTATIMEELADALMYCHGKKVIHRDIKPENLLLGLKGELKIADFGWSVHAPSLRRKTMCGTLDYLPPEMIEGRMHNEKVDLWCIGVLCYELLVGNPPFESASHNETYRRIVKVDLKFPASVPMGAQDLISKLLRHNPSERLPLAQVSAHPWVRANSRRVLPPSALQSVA
The nature of data set [19]: Clearance in CD-1 mouse at 1 mg/kg, iv. Type of data set: ADME, organism-based. As to conditions: in vivo. Details: dose 1 mg/kg, route intravenous.
Data set [20] in a line: Half life in CD-1 mouse at 5 mg/kg, po. Type of data set: ADME, organism-based. As to conditions: in vivo. Also on record: dose 5 mg/kg, route oral.
A short description of data set [21]: Inhibition of VEGFR.
In data set [22] the test system is Mus musculus. As to the kind of experiment: Antiinflammatory activity in mouse assessed as inhibition of LPS-induced IFN-beta production at 15 mg/kg, ip administered 30 mins prior LPS challenge measured 1 hr post challenge by ELISA. Type of data set: functional, organism-based. Details: dose 15 mg/kg.

The source made the active and inactive calls.

Chain of MAP kinase-interacting serine/threonine-protein kinase 1 (Q9BUB5 whole entry): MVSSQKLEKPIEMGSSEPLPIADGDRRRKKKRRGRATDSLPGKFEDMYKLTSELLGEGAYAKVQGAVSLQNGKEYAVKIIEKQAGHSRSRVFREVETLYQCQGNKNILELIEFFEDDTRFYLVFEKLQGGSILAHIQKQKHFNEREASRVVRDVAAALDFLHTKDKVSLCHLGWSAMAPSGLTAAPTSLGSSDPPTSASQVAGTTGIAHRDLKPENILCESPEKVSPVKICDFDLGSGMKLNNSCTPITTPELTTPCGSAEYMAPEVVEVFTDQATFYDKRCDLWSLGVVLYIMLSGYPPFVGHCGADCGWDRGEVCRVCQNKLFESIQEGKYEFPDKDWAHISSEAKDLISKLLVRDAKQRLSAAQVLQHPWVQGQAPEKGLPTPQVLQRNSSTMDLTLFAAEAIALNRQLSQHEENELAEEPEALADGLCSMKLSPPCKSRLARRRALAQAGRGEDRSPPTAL

For `O=C(NCCCNc1nc(Nc2cccc(F)c2)ncc1Br)C1CCCC1`, the IC50 was 220 nM in data set [1] and 8 nM in data set [2].
`O=C(NCCCNc1nc(Nc2cccc(F)c2)ncc1C1CC1)C1CCC1`: the 50% inhibitory concentration (IC50) was 1300 nM in [3], 580 nM in [1] and 8 nM in data set [2]. Also, the metabolised at 40 min in data set [4] turned out to be 80%. Also, the metabolised at 0.5 h in data set [5] turned out to be 74%.
`O=C(NCCCNc1nc(Nc2cccc(F)c2)ncc1Br)c1cccs1`: the results for the IC50 in data set [1] and in [2] were 130 nM and 9 nM, respectively.
Turning to `Cn1cc(Nc2ncc(C3CC3)c(NCCCNC(=O)C3CCC3)n2)cn1`, the IC50 was determined as 1800 nM in data set [6]; 170 nM in [3]; 20 µM in data set [7]; 20 nM in data set [8]; 3700 nM in data set [9]; 100 nM in [13]. Besides, the IC50 in data set [15] turned out to be 110 nM; in [18] it was 190 nM; in [2], 8 nM; in [21], 1400 nM. Also, the metabolised at 40 min in data set [4] was 0%. Also, the efflux ratio in data set [10] is 8. Further, in [11], the Papp A→B is 7.4 ×10⁻⁶ cm/s. Also, the figures for the half-life in data set [12] and in data set [20] were 27 min and 75 min, respectively. Further, the Activity entry in [14] was “Toxic”. Also, in data set [5], the metabolised at 0.5 h was determined as 21%. Further, the bioavailability in data set [16] is 25%. This molecule also yielded a Vd in [17] of 1.79 L/kg. In [19], the clearance came out at 79 mL/min/kg. The inhibition entry in data set [22] is “Active”.
Consider `O=C(NCCCNc1nc(Nc2ccc(N3CCOCC3)cc2)ncc1C1CC1)C1CCC1`, for which the IC50 in data set [6] is 550 nM; in data set [3] it was 58 nM; in [7], 19 µM; in [8] it was 12 nM; in data set [9], 1900 nM; in data set [13], 30 nM. Further, the IC50 was 630 nM in [15], 700 nM in [18], 6 nM in data set [2] and 3600 nM in [21]. Besides, in data set [4], the metabolised at 40 min was found to be 18%. For the same molecule, the efflux ratio in data set [10] was found to be 1. For the same molecule, in data set [11], the Papp A→B was 34 ×10⁻⁶ cm/s. The metabolised at 0.5 h in data set [5] came out at 53%.

A word on the IC50: it is the concentration at which inhibition is half-maximal. In general, efflux ratio refers to a quotient of directional permeabilities that is used to spot active efflux. The half-life is the time needed for the level to fall by half in the phase considered. In general, bioavailability refers to dose-corrected exposure relative to a reference, in per cent. A low value points to little systemic uptake. A word on the Vd: it is the apparent volume that relates the amount in the body to the concentration in plasma or blood. Lower therefore signals little distribution into tissue. For orientation: clearance means a measure of how efficiently the substance is removed, as volume per time. The low end stands for inefficient removal, the high end for efficient removal.
